Assay [1] concerns DLD-1. Put plainly: Inhibition of proteasome activity in human DLD1 cells expressing 4-ubiquitin luciferase reporter protein assessed increase of luciferase signal at 1 uM after 7 hrs relative to control.
Assay [2] has as its system DLD-1. Put plainly: Inhibition of proteasome activity in human DLD1 cells expressing 4-ubiquitin luciferase reporter protein assessed increase of luciferase signal at 10 uM after 7 hrs relative to control. On the technique in general: Reporter assays use an easily measured gene product as a stand-in for the process of interest.
Assay [3] has as its system DLD-1. Put plainly: Inhibition of proteasome activity in human DLD1 cells expressing 4-ubiquitin luciferase reporter protein assessed increase of luciferase signal at 5 uM after 7 hrs relative to control.
Assay [4] concerns DLD-1. Nature of the assay: Inhibition of proteasome activity in human DLD1 cells expressing 4-ubiquitin luciferase reporter protein assessed increase of luciferase signal at 0.5 uM after 7 hrs relative to control.

Consider `C=C(C(=O)[C@H](O)[C@@H](C)[C@H]1[C@@H](OC(C)=O)C[C@@]2(C)[C@@H]3CC[C@H]4[C@](C)(C(=O)O)[C@@H](O)CC[C@@]45C[C@@]35CC[C@]12C)C(C)C`, for which the fold change (FC) in the assay with DLD-1 [1] worked out at 1.2; in the assay with DLD-1 [2] it was 1.8; in the assay on DLD-1 [3], 1.3.
For `C=C(C(=O)[C@H](O)[C@@H](C)[C@H]1[C@@H](OC(C)=O)C[C@@]2(C)[C@@H]3CC[C@H]4[C@H](C)C(=O)C=C[C@@]45C[C@@]35CC[C@]12C)C(C)C`, the fold change (FC) was 2.4 in the assay on DLD-1 [1], 20 in the assay on DLD-1 [2] and 65 in the assay on DLD-1 [3].
For `CC(=O)O[C@H]1C[C@@]2(C)[C@@H]3CC[C@H]4[C@H](C)C(=O)C=C[C@@]45C[C@@]35CC[C@]2(C)[C@H]1[C@H](C)[C@@H](OC(C)=O)C(=O)C=C(C)C` the same measures were 1.1, 44 and 34.
Take `C=C(C(=O)[C@H](OC(C)=O)[C@@H](C)[C@H]1[C@@H](OC(C)=O)C[C@@]2(C)[C@@H]3CC[C@H]4[C@H](C)C(=O)C=C[C@@]45C[C@@]35CC[C@]12C)[C@@H](C)CO`: the fold change (FC) in the assay on DLD-1 [1] came to 48; in the assay on DLD-1 [2] it was 4.4; in the assay with DLD-1 [3], 37; in the assay with DLD-1 [4], 2.1.
Take `C=C(C(=O)[C@H](O)[C@@H](C)[C@H]1[C@@H](OC(C)=O)C[C@@]2(C)[C@@H]3C[C@@H](O)[C@H]4[C@H](C)C(=O)C=C[C@@]45C[C@@]35CC[C@]12C)[C@@H](C)CO`: the fold change (FC) came out at 1.1 in the assay with DLD-1 [1] and 35 in the assay with DLD-1 [3].
In the case of `CC(=O)O[C@H]1C[C@@]2(C)[C@@H]3CC[C@H]4[C@H](C)C(=O)C=C[C@@]45C[C@@]35CC[C@]2(C)[C@H]1[C@H](C)[C@@H](O)C(=O)C=C(C)C`, the fold change (FC) in the assay on DLD-1 [1] amounted to 1.1; in the assay on DLD-1 [2] it was 53; in the assay with DLD-1 [3], 5.2.
On to `C=C(C(=O)[C@H](O)[C@@H](C)[C@H]1[C@@H](OC(C)=O)C[C@@]2(C)[C@@H]3CC[C@H]4[C@H](C)C(=O)C=C[C@]45C[C@]35CC[C@]12C)[C@@H](C)CO`, for which the fold change (FC) in the assay with DLD-1 [1] was 0.9; with DLD-1 [3], 9.1; with DLD-1 [4], 0.9.
For `C=C(C(=O)C[C@@H](C)[C@H]1CC[C@@]2(C)[C@@H]3CC[C@H]4[C@](C)(C(=O)O[C@@H]5O[C@@H](C)[C@H](O)[C@@H](O)[C@H]5O)[C@@H](O)CC[C@@]45C[C@@]35CC[C@]12C)C(C)C`, the fold change (FC) came out at 1.1 with DLD-1 [1], 1.1 in the assay with DLD-1 [2] and 1 in the assay with DLD-1 [3].
Consider `C=C(C(=O)[C@H](O)[C@@H](C)[C@H]1[C@@H](OC(C)=O)C[C@@]2(C)[C@@H]3CC[C@H]4[C@H](C)C(=O)C[C@H](O)[C@@]45C[C@@]35CC[C@]12C)[C@@H](C)CO`, for which the fold change (FC) was 1.6 with DLD-1 [1], 74 in the assay with DLD-1 [2], 11 in the assay on DLD-1 [3] and 1.3 with DLD-1 [4].
For the molecule `C=C(C(=O)C[C@@H](C)[C@H]1[C@@H](OC(C)=O)C[C@@]2(C)[C@@H]3CC[C@H]4[C@](C)(C(=O)O)[C@@H](O)CC[C@@]45C[C@@]35CC[C@]12C)C(C)CO` (some centres not stated), the fold change (FC) was found to be 1 in the assay on DLD-1 [1], 2.8 in the assay on DLD-1 [2] and 1.3 in the assay with DLD-1 [3].
For `C=C(C(=O)[C@H](OC(C)=O)[C@@H](C)[C@H]1[C@@H](OC(C)=O)C[C@@]2(C)[C@@H]3[C@H]4O[C@H]4[C@H]4[C@H](C)C(=O)C=C[C@@]45C[C@@]35CC[C@]12C)[C@@H](C)CO` the same measures were 2.8, 15 and 72.
For `C=C(C(=O)[C@H](OC(C)=O)[C@@H](C)[C@H]1[C@@H](OC(C)=O)C[C@@]2(C)[C@@H]3CC[C@H]4[C@H](C)C(=O)C=C[C@@]45C[C@@]35CC[C@]12C)[C@@H](C)C=O`, the fold change (FC) in the assay with DLD-1 [1] came to 1; in the assay with DLD-1 [2] it was 31; in the assay on DLD-1 [3] it was 70.
For `C=C(C(=O)[C@H](OC(C)=O)[C@@H](C)[C@H]1[C@@H](OC(C)=O)C[C@@]2(C)[C@@H]3CC[C@H]4[C@H](C)C(=O)CC[C@@]45C[C@@]35CC[C@]12C)[C@@H](C)CO` the same measures were 0.9, 48 and 45.
Regarding `C=C(C(=O)[C@H](OC(C)=O)[C@@H](C)[C@H]1[C@@H](OC(C)=O)C[C@@]2(C)[C@@H]3CC[C@H]4[C@H](C)C(=O)C=C[C@@]45C[C@@]35CC[C@]12C)[C@H](C)CO`, the fold change (FC) was 1.5 in the assay on DLD-1 [1], 60 in the assay on DLD-1 [2], 71 in the assay with DLD-1 [3] and 1 in the assay on DLD-1 [4].
Regarding `C=C(C(=O)[C@H](O)[C@@H](C)[C@H]1[C@@H](OC(C)=O)C[C@@]2(C)[C@@H]3CC[C@H]4[C@H](C)C(=O)CC[C@@]45C[C@@]35CC[C@]12C)[C@@H](C)CO`, the fold change (FC) with DLD-1 [1] stood at 1.2; with DLD-1 [2] it was 77; in the assay on DLD-1 [3], 10.
For `C=C(C(=O)C1(O)O[C@H]2C[C@@]3(C)[C@@H]4CC[C@H]5[C@H](C)C(=O)C=C[C@@]56C[C@@]46CC[C@]3(C)[C@H]2[C@@H]1C)[C@@H](C)CO` (some centres not stated) the same measures were 0.9, 2.6 and 1.
`C=C(C(=O)[C@H](OC(C)=O)[C@@H](C)[C@H]1[C@@H](OC(C)=O)C[C@@]2(C)[C@@H]3C[C@@H](O)[C@H]4[C@H](C)C(=O)C=C[C@@]45C[C@@]35CC[C@]12C)[C@@H](C)CO`: the fold change (FC) with DLD-1 [1] is 5.1; in the assay with DLD-1 [3], 31; in the assay with DLD-1 [4], 1.2.
On to `CC(=O)O[C@H]1C[C@@]2(C)[C@@H]3CC[C@H]4[C@H](C)C(=O)C=C[C@@]45C[C@@]35CC[C@]2(C)[C@H]1[C@H](C)C=O`, for which the fold change (FC) in the assay on DLD-1 [1] is 1.1; in the assay with DLD-1 [2], 3; in the assay with DLD-1 [3], 1.3.
As for `C=C(C(=O)[C@H](OC(C)=O)[C@@H](C)[C@H]1[C@@H](OC(C)=O)C[C@@]2(C)[C@@H]3CC[C@H]4[C@H](C)C(=O)C=C[C@]45C[C@]35CC[C@]12C)[C@@H](C)CO`, the fold change (FC) stood at 2 in the assay on DLD-1 [1], 24 with DLD-1 [2], 84 with DLD-1 [3] and 1.4 with DLD-1 [4].
As to `CC(C)=CC(=O)C[C@@H](C)[C@H]1CC[C@@]2(C)[C@@H]3CC[C@H]4[C@](C)(C(=O)O[C@@H]5O[C@@H](C)[C@H](O)[C@@H](O)[C@H]5O)[C@@H](O)CC[C@@]45C[C@@]35CC[C@]12C`, the results for the fold change (FC) in the assay on DLD-1 [1], in the assay with DLD-1 [2] and in the assay with DLD-1 [3] were 1, 1.1 and 1, respectively.
In the case of `C=C(C(=O)[C@H](OC(C)=O)[C@@H](C)[C@H]1[C@@H](OC(C)=O)C[C@@]2(C)[C@@H]3CC[C@H]4[C@H](C)C(=O)C=C[C@@]45C[C@@]35CC[C@]12C)C(C)C`, the fold change (FC) with DLD-1 [1] was determined as 7.2; in the assay on DLD-1 [2], 19; in the assay on DLD-1 [3] it was 74.
Turning to `C=C(C(=O)[C@H](OC(C)=O)[C@@H](C)[C@H]1[C@@H](OC(C)=O)C[C@@]2(C)[C@@H]3CC[C@H]4[C@H](C)C(=O)C=C[C@@]45C[C@@]35CC[C@]12C)[C@@H](C)COC(C)=O`, the fold change (FC) in the assay on DLD-1 [1] was found to be 12; in the assay with DLD-1 [3], 48; with DLD-1 [4] it was 1.1.
Regarding `C=C(C(=O)[C@H](OC(C)=O)[C@@H](C)[C@H]1[C@@H](OC(C)=O)C[C@@]2(C)[C@@H]3CC[C@H]4[C@H](C)C(=O)[C@H](O)[C@H]5C[C@]54C3=CC[C@]12C)[C@@H](C)CO`, the fold change (FC) is 1.2 in the assay with DLD-1 [1], 15 with DLD-1 [2] and 1.9 with DLD-1 [3].
For `C=C1C(C)CO[C@@]12C[C@@H](C)[C@H]1[C@H](C[C@@]3(C)[C@@H]4CC[C@H]5[C@](C)(C(=O)O)[C@@H](O)CC[C@@]56C[C@@]46CC[C@]13C)O2` (some centres not stated) the same measures were 1.2, 1.3 and 1.3.
With `C=C(C(=O)[C@H](O)[C@@H](C)[C@H]1[C@@H](OC(C)=O)C[C@@]2(C)[C@@H]3CC[C@H]4[C@H](C)C(=O)C=C[C@@]45C[C@@]35CC[C@]12C)[C@@H](C)CO`, the fold change (FC) was determined as 45 in the assay on DLD-1 [1], 2.9 in the assay on DLD-1 [2], 28 in the assay with DLD-1 [3] and 1.4 in the assay with DLD-1 [4].
For the molecule `C=C(C(=O)[C@H](OC(C)=O)[C@@H](C)[C@H]1[C@@H](OC(C)=O)C[C@@]2(C)[C@@H]3CC[C@H]4[C@H](C)C(=O)C=C[C@@]45C[C@@]35CC[C@]12CO)[C@@H](C)CO`, the fold change (FC) in the assay with DLD-1 [1] amounted to 1.2; in the assay on DLD-1 [2] it was 1.1; in the assay with DLD-1 [3], 12.

These data come from ChEMBL document CHEMBL1949544, “Proteasome inhibitors from Neoboutonia melleri” (J Nat Prod, 2012).
